Laboratory results as given in ChEMBL document CHEMBL3044759, “Synthesis and Insecticidal Activity of Lignan Analogs. (1)” (1991).
The source made the active and inactive calls. The calls are words filed in the database; no cut-off is given here.

Key:
Musca domestica [1] = assay: Insecticidal activity against Musca domestica (housefly) assessed as paralysis at 28 degC measured after 24 hr at 10 ug topically; assay type: functional, organism-based
Musca domestica [2] = assay: Insecticidal activity against Musca domestica (housefly) assessed as paralysis at 28 degC measured per fly after 24 hr; assay type: functional

| SMILES | Activity (Musca domestica [1]) | LD50 (Musca domestica [2]) |
| --- | --- | --- |
| COc1ccc(O)cc1[C@H]1OC[C@]2(O)[C@H](Oc3c(OC)cccc3OC)OC[C@H]12 (racemic) | inactive |  |
| COCCOc1ccc(OC)c([C@H]2OC[C@]3(O)[C@H](Oc4c(OC)cccc4OC)OC[C@H]23)c1 (racemic) | inactive |  |
| COCCOCCOc1ccc(OC)c([C@H]2OC[C@]3(O)[C@@H](Oc4c(OC)cccc4OC)OC[C@H]23)c1 (racemic) | Active |  |
| COc1ccc(O[Si](C)(C)C(C)(C)C)cc1[C@H]1OC[C@]2(O[Si](C)(C)C(C)(C)C)C(Oc3c(OC)cccc3OC)OC[C@H]12 (mixture of isomers) | inactive |  |
| COc1ccc(O)cc1[C@H]1OC[C@]2(O[Si](C)(C)C(C)(C)C)[C@@H](Oc3c(OC)cccc3OC)OC[C@H]12 (racemic) | inactive |  |
| COc1ccc(OCc2ccc3c(c2)OCO3)cc1[C@H]1OC[C@]2(O)[C@@H](Oc3c(OC)cccc3OC)OC[C@H]12 (racemic) | inactive |  |
| COCCOc1ccc(OC)c([C@H]2OC[C@]3(O)[C@@H](Oc4c(OC)cccc4OC)OC[C@H]23)c1 (racemic) | Active |  |
| CCCCOc1ccc(OC)c([C@H]2OC[C@]3(O)[C@@H](Oc4c(OC)cccc4OC)OC[C@H]23)c1 (racemic) |  | 8 µg |
